According to patent US20240279201A1, “DUAL WNT SIGNALING PATHWAY INHIBITORS AND AMPK ACTIVATORS FOR TREATMENTS OF DISEASE” (priority 2021, published 2024):
“Also recorded” adds a separate entry of the source.

How the values were obtained:
[1] = Pharmacokinetic (PK) studies, oral dose; settings: C57/BL6, mouse, blood, 5 mg/kg
Protocol: The ADMET and PK properties of YA6060 was determined.
PK/Tox. The four selected compounds from in vitro evaluation above are subjected to PK and toxicity assessment in C57/BL6 mice. […] Compound concentrations is determined by LC/MS/MS. PK analysis is carried out on Phoenix Winnolin using non-compartmental analysis and compartment models. Compound accumulation in major tissues, including liver, kidney, heart, brain and intestine, are quantified. […] For study ii, a half number of mice per group are sacrificed immediately after the 3-week course and the remaining after a 2-week washout period to assess delayed toxicity. In toxicity studies, blood is collected upon euthanasia for liver and renal chemistries and complete blood counts, and major organs harvested and examined macro- and microscopically by veterinarian pathologists. It is expected that an understanding of PK properties, such as bioavailability, AUC, clearance, and toxic effects, such as general tolerance and specific toxicity in the liver, kidney, other major organs, and particularly Wnt-dependent tissues, such as intestine, stomach, and skin is established for these selected compounds.

AMPK = test: Western blotting of phosphorylated AMPK in HEK293 cells; format: cell-based; settings: 100 nM, 24 h
Protocol: (§1) FIG. 6A-FIG. 6E illustrate the development of Axin stabilizers with dual activities of Wnt inhibition and AMPK activation. […] HEK293 cells were used. B&C: 100 nM compounds, 24 h. FIG. 6D is a table showing the activity profile of YA6060. F=bioavailability; soubility is aqueous solubility.
(§2) A dual-luciferase gene reporter assay was used to test inhibitory activities of new compounds on Wnt signaling. […] Axin is also reported to form a complex with AMPK and its upstream kinase LKB1 (FIG. 12A and FIG. 12B) to facilitate AMPK activation. Therefore, the effects of new compounds on AMPK was examined. […] YA6060 and its analogs had dual activities of potent Wnt signaling inhibition and AMPK activation, which were dependent on the levels of scaffolding protein Axin.

[2] = Toxicity evaluation in mice (oral gavage); format: in vivo
Protocol: FIG. 8 illustrates the preliminary toxicity evaluated for YA6060 in major mouse organs. […] 11 weeks C57BL/6 mice were treated for […]. The isolated tissues were stained by Haematoxylin and Eosin (H&E). The images were taken under an amplification of 20×.
Body weight change was measured over time in mice received YA6060. […]

TGF-β-treated LX-2 cells = test: Anti-fibrotic efficacy in TGF-β-treated LX-2 cells; format: cell-based; settings: 24 hours
Protocol: FIG. 9A-FIG. 9C illustrate the anti-fibrotic efficacy of YA6060 in LX-2 cells. LX-2 cells were exposure to TGF-beta with and without different concentrations of YA6060 for 24 hours. FIG. 9A is a gel illustrating Western blot results. FIG. 9B and FIG. 9C are graphs of experimental data illustrating RT-PCR results. FIG. 14A-FIG. 14C illustrate the anti-fibrotic efficacy of YA6060 in LX-2 cells. The effect of YA6060 treatment on the expression of fibrotic markers in LX-2 cells was examined. LX-2 cells were treated with TGF-beta to model fibrosis. FIG. 14A is an image of a Western blot illustrating protein expression of collagen 1, vimentin, and alpha-SMA. […] FIG. 14C is a graph of experimental data illustrating mRNA expression of genes associated with inflammation by RT-PCR. The cells were treated with the indicated concentrations of YA6060 for 24 hours. *P<0.05, **P<0.01. […] The effect of YA6060 treatment on the expression of fibrotic markers in LX-2 cells was examined. LX-2 cells were treated with TGF-beta to model fibrosis. Protein expression of collagen 1, vimentin, and alpha-SMA by Western blotting (FIG. 14A). mRNA expression of collagen 1, vimentin, and alpha-SMA by RT-PCR was examined (FIG. 14B). mRNA expression of genes associated with inflammation by RT-PCR was examined (FIG. 14C). The cells were treated with the indicated concentrations of YA6060 for 24 hours. *P<0.05, **P<0.01. […]

HT29 cells = test: Viability of HT29 cells; format: cell-based; settings: Homo sapiens, HT-29, read-out: IC50, cell viability
[3] = Cytotoxicity (CC50) during the luciferase gene reporter assay; format: cell-based; settings: human, HEK293 cells; short treatment duration of the luciferase gene reporter assay
β-catenin = β-catenin (Homo sapiens (Human), UniProt P35222); test: Western blotting of β-catenin in HEK293 cells; format: cell-based; settings: 100 nM, 24 h
Protocol: as §1, §2

Cc1ccccc1-n1nnc(C(=O)Nc2ccc3cc(CN4CCNCC4)ccc3n2)c1C [YA6060]
half-life ([1]; oral): 2.67 h | Cmax ([1]; po): 24000 ng/mL | Tmax ([1]; po): 1.6 h | bioavailability ([1]; po): 75% | half-life ([1]; po): 2.67 h | levels of phosphorylated AMPK (p-AMPK) (AMPK): significantly increased | MTD at 21 days ([2]; C57BL/6, mouse, in vivo, oral, 500 mg/kg, mice, single dose): > 500 mg/kg | acute toxicity test (body weight change) ([2]; mouse, in vivo, po): did not exhibit acute toxicity | toxicity / tolerability in mice, histology of major organs ([2]; oral gavage 500 mg/kg once, 21-day evaluation): no obvious toxicity; also recorded: no noticeable toxic effects; also recorded: well tolerated; also recorded: No histological changes | safety margin over an efficacy dose (0.5 mg/kg) for liver fibrosis ([2]; single dose of 500 mg/kg): > 1,000 fold | expression of fibrosis and inflammation markers (TGF-β-treated LX-2 cells): significantly reduced the expression of fibrosis markers | IC50 (HT29 cells): 8.6 µM | CC50 [3]: > 92 µM | protein level of β-catenin (β-catenin): decreased
